Reference: patent EP4647433A1, “SHP2 INHIBITOR AND USES THEREOF” (Kanaph Therapeutics Inc., priority 2023, dated 2024)
Where two headings read alike, the source gives them in different places.

Assays:
SHP2 = molecular target: T1, SHP2 (Homo sapiens, UniProt Q06124); test: Phosphatase assay (PTPase assay, DiFMUP substrate); type: biochemical
T1 construct: SHP2 (full length, diluted to 100 pM final concentration in reaction buffer, BPS bioscience, US); purchased BPS bioscience, US
T1 sequence (Q06124 1-593): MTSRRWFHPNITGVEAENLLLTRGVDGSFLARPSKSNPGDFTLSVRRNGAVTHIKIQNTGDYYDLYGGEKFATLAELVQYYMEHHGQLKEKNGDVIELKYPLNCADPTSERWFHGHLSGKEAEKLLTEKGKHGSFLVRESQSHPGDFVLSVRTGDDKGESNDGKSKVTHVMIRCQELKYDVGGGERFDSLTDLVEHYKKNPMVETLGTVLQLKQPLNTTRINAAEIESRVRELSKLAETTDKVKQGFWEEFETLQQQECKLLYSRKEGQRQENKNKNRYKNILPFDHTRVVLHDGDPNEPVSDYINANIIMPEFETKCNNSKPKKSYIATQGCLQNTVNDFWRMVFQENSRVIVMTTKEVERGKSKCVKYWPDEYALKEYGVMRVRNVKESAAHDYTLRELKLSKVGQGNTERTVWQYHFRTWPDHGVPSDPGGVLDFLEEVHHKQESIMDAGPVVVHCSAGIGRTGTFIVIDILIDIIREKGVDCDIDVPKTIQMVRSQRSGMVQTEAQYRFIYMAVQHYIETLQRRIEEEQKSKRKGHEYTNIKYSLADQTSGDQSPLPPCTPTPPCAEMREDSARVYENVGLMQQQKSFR
Procedure: IC50 values were measured using 6,8-difluoro-4-methylumbelliferyl phosphate (DiFMUP) as a substrate. The reaction was performed in a 384-well plate, and fluorescence measurement values were obtained using an EnVision plate reader from PerkinElmer.
SHP2 (full length, diluted to 100 pM final concentration in reaction buffer, BPS bioscience, US) was incubated with the SHP2 activating peptide in reaction buffer (60 mM HEPES (pH 7.2), 75 mM NaCl, 75 mM KCl, 1 mM EDTA, 5 mM DTT, 0.05% P-20) for 30 minutes to activate SHP2. After activation, DMSO [1% (V/V) or the compound according to the Examples (concentration ranging from 0.6 nM to 10 µM)] was added. As a positive control group, the selective SHP2 inhibitors SHP099 (6-(4-amino-4-methylpiperidin-1-yl)-3-(2,3-dichlorophenyl)pyrazin-2-amine, FOCUS bioscience, Austrailia; concentration ranging from 0.6 nM to 10 µM) and TNO155 ((3S,4S)-8-(6-amino-5-((2-amino-3-chloropyridin-4-yl)thio)pyrazin-2-yl)-3-methyl-2-oxa-8-azaspiro[4.5]decan-4-amine, Chemietek, US; concentration ranging from 0.6 nM to 10 µM) were used. [drawing 184]
DiFMUP (80 µM) was added to the reaction and incubated for a total of 2 hours to allow for the reaction to proceed. Thereafter, fluorescence (340 nm excitation, 450 nm emission) values were measured. IC50 values were obtained using Graphad's Prism from the measured values depending on the concentration.
In the phosphatase assay (PTPase assay), when an IC50 value was 100 nM or more, + was indicated, when an IC50 value was 3 nM or more and less than 100 nM, ++ was indicated, and when an IC50 value was less than 3 nM, +++ was indicated.

H358 cells = test: Cell viability (3D spheroid, 3D CellTiter-Glo); type: cell-based; conditions: Homo sapiens, NCI-H358, 120 h; H358 spheroids, 5 days treatment
Procedure: Human non-small cell lung cancer cell line H358 cells were purchased from the Korean Cell Line Bank. Cancer cell lines were cultured in the recommended RPMI-1640 medium supplemented with 10% fetal bovine serum (FBS) and 1% penicillin/streptomycin. Monolayer-cultured cancer cell lines were detached by treatment with Trypsin/EDTA, and 100 µL of cell suspension containing 4 x 10^3 cells was each dispensed into SPL3D™ Cell Floater, 96-well round plate, through cell line counting. After culturing for 72 hours to form spheroid, the cells were individually treated with the compounds according to the Examples, which had been serially diluted (minimum 1.5 nM, maximum 10 µM in concentration), and then cultured in a cell incubator for 5 days. To analyze cell viability, the cells were treated with 50 uL of 3D CellTiter-Glo, stirred for 5 minutes at 500 rpm in a plate shaker from Thermo Fisher Scientific, and incubated for 25 minutes at room temperature. Then, the luminescent values were measured using a Varioskan equipment from Thermo Fisher Scientific. IC50 values were obtained using GraphPad's Prism from the measured values depending on the concentration.
In the cell viability assay, when an IC50 value was 50 nM or more, + was indicated, when an IC50 value was 10 nM or more and less than 50 nM, ++ was indicated, and when an IC50 value was less than 10 nM, +++ was indicated.

[1] = full length SHP2 100 pM activated with SHP2 activating peptide, DiFMUP 80 µM, 2 hours, read-out: PTPase assay (IC50)

Row | SMILES | IC50 (SHP2; [1]) [nM] | IC50 (H358 cells) [nM] | IC50 (SHP2) [nM]
1 | CC(C)(C)Cn1cnc2ccc(Sc3cnc(N4CCC5(CC4)Cc4ncsc4[C@H]5N)cn3)c(Cl)c2c1=O [Example 5, (S)-6-((5-(6-amino-4,6-dihydrospiro[cyclopenta[d]thiazole-5,4'-piperidin]-1'-yl)pyrazin-2-yl)thio)-5-chloro-3-neopentylquinazolin-4(3H)-one] | < 3 | – | –
2 | Cn1cnc2ccc(Sc3cnc(N4CCC5(CC4)Cc4ncccc4[C@H]5N)cn3)c(Cl)c2c1=O [Example 6, (S)-6-((5-(5-amino-5,7-dihydrospiro[cyclopenta[b]pyridine-6,4'-piperidin]-1'-yl)pyrazin-2-yl)thio)-5-chloro-3-methylquinazolin-4(3H)-one] | < 3 | < 10 | –
3 | CC(C)(O)Cn1cnc2ccc(Sc3ncc(N4CCC5(CC4)Cc4ccccc4[C@H]5N)nc3N)c(Cl)c2c1=O [Example 11, (S)-6-((3-amino-5-(1-amino-1,3-dihydrospiro[indene-2,4'-piperidin]-1'-yl)pyrazin-2-yl)thio)-5-chloro-3-(2-hydroxy-2-methylpropyl)quinazolin-4(3H)-one] | < 3 | < 10 | –
4 | C[C@@H]1OCC2(CCN(c3cnc(Sc4ccc5ncn(Cc6ccccc6)c(=O)c5c4Cl)c(N)n3)CC2)[C@@H]1N [Example 12, 6-((3-amino-5-((3S,4S)-4-amino-3-methyl-2-oxa-8-azaspiro[4.5]decan-8-yl)pyrazin-2-yl)thio)-3-benzyl-5-chloroquinazolin-4(3H)-one] | 3 to 100 | – | –
5 | CC1(CN)CCN(c2cnc(Sc3ccc4ncn(Cc5ccccc5)c(=O)c4c3Cl)c(N)n2)CC1 [Example 13, 6-((3-amino-5-(4-(aminomethyl)-4-methylpiperidine-1-yl)pyrazin-2-yl)thio)-3-benzyl-5-chloroquinazolin-4(3H)-one] | 3 to 100 | – | –
6 | COC(C)Cn1ccc2ccc(Sc3cnc(N4CCC5(CC4)CO[C@@H](C)[C@H]5N)cn3)c(Cl)c2c1=O (stereo partly drawn) [Example 14, 7-((5-((3S,4S)-4-amino-3-methyl-2-oxa-8-azaspiro[4.5]decan-8-yl)pyrazin-2-yl)thio)-8-chloro-2-(2-methoxypropyl)isoquinolin-1(2H)-one] | < 3 | < 10 | –
7 | Cn1ccc2ccc(Sc3cnc(N4CCC5(CC4)Cc4ncsc4[C@H]5N)cn3)c(Cl)c2c1=O [Example 16, (S)-7-((5-(6-amino-4,6-dihydrospiro[cyclopenta[d]thiazole-5,4'-pineridin]-1'-yl)pyrazin-2-yl)thio)-8-chloro-2-methylisoquinolin-1(2H)-one] | – | < 10 | –
8 | Cn1cnc2ccc(Sc3cnc(N4CCC5(CC4)Cc4ncsc4[C@H]5N)cn3)cc2c1=O [Example 17, (S)-6-((5-(6-amino-4,6-dihydrospiro[cyclopenta[d]thiazole-5,4'-piperidin]-1'-yl)pyrazin-2-yl)thio)-3-methylquinazolin-4(3H)-one] | < 3 | < 10 | –
9 | COC(F)(F)Cn1cnc2ccc(Sc3cnc(N4CCC5(CC4)CO[C@@H](C)[C@H]5N)cn3)c(Cl)c2c1=O [Example 19, 6-((5-((3S,4S)-4-amino-3-methyl-2-oxa-8-azaspiro[4.5]decan-8-yl)pyrazin-2-yl)thio)-5-chloro-3-(2,2-difluoro-2-methoxyethyl)quinazolin-4(3H)-one] | < 3 | – | –
10 | COC1(Cn2cnc3ccc(Sc4cnc(N5CCC6(CC5)CO[C@@H](C)[C@H]6N)cn4)c(Cl)c3c2=O)CC1 [Example 20, 6-((5-((3S,4S)-4-amino-3-methyl-2-oxa-8-azaspiro[4.5]decan-8-yl)pyrazin-2-yl)thio)-5-chloro-3-((1-methoxycyclopropyl)methyl)quinazolin-4(3H)-one] | 3 to 100 | – | –
11 | C[C@@H]1OCC2(CCN(c3cnc(Sc4ccc5ncn(CC(C)(F)F)c(=O)c5c4Cl)cn3)CC2)[C@@H]1N [Example 21, 6-((5-((3S,4S)-4-amino-3-methyl-2-oxa-8-azaspiro[4.5]decan-8-yl)pyrazin-2-yl)thio)-5-chloro-3-(2,2-difluoropropyl)quinazolin-4(3H)-one] | < 3 | – | –
12 | COCCn1cnc2ccc(Sc3cnc(N4CCC5(CC4)Oc4ccccc4[C@H]5N)cn3)c(Cl)c2c1=O [Example 22, (R)-6-((5-(3-amino-3H-spiro[benzofuran-2,4'-piperidin]-1'-yl)pyrazin-2-yl)thio)-5-chloro-3-(2-methoxyethyl)quinazolin-4(3H)-one] | 3 to 100 | – | –
13 | C[C@@H]1OCC2(CCN(c3cnc(Sc4ccc5ncn(CC6(C)CCOCC6)c(=O)c5c4Cl)cn3)CC2)[C@@H]1N [Example 23, 6-((5-((3S,4S)-4-amino-3-methyl-2-oxa-8-azaspiro[4.5]decan-8-yl)pyrazin-2-yl)thio)-5-chloro-3-((4-methyltetrahydro-2H-pyran-4-yl)methyl)quinazolin-4(3H)-one] | < 3 | 10 to 50 | –
14 | C[C@@H]1OCC2(CCN(c3cnc(Sc4ccc5ncn(CCC#N)c(=O)c5c4Cl)cn3)CC2)[C@@H]1N [Example 24, 3-(6-((5-((3S,4S)-4-amino-3-methyl-2-oxa-8-azaspiro[4.5]decan-8: yl)pyrazin-2-yl)thio)-5-chloro-4-oxoquinazolin-3(4H)-yl)propanenitrile] | – | 10 to 50 | < 3
15 | C[C@@H]1OCC2(CCN(c3cnc(Sc4ccc5ncn(CC6CCN(C)CC6)c(=O)c5c4Cl)cn3)CC2)[C@@H]1N [Example 26, 6-((5-((3S,4S)-4-amino-3-methyl-2-oxa-8-azaspiro[4.5]decan-8-yl)pyrazin-2-yl)thio)-5-chloro-3-((1-methylpiperidin-4-yl)methyl)quinazolin-4(3H)-one] | 3 to 100 | < 10 | –
16 | N[C@@H]1c2ccccc2CC12CCN(c1cnc(Sc3ccc4ncn(-c5ccccc5)c(=O)c4c3Cl)cn1)CC2 [Example 30, (S)-6-((5-(1-amino-1,3-dihydrospiro[indene-2,4'-piperidin]-1'-yl)pyrazin-2-yl)thio)-5-chloro-3-phenylquinazolin-4(3H)-one] | – | < 10 | –
17 | COC(C)(C)Cn1cnc2ccc(Sc3cnc(N4CCC5(CC4)Cc4scnc4[C@H]5N)cn3)c(Cl)c2c1=O [Example 33, (S)-6-((5-(4-amino-4,6-dihydrospiro[cyclopenta[d]thiazole-5,4'-piperidin]-1'-yl)pyrazin-2-yl)thio)-5-chloro-3-(2-methoxy-2-methylpropyl)quinazolin-4(3H)-one] | – | 10 to 50 | –
18 | N[C@@H]1c2scnc2CC12CCN(c1cnc(Sc3ccc4ncn(-c5ccccc5)c(=O)c4c3Cl)cn1)CC2 [Example 38, (S)-6-((5-(6-amino-4,6-dihydrospiro[cyclopenta[d]thiazole-5,4'-piperidin]-1'-yl)pyrazin-2-yl)thio)-5-chloro-3-phenylquinazolin-4(3H)-one] | – | < 10 | –
19 | CC(C)n1ccc2ccc(Sc3cnc(N4CCC5(CC4)Cc4ncsc4[C@H]5N)cn3)c(Cl)c2c1=O [Example 40, (S)-7-((5-(6-amino-4,6-dihydrospiro[cyclopenta[d]thiazole-5,4'-piperidin]-1'-yl)pyrazin-2-yl)thio)-8-chloro-2-isopropylisoquinolin-1(2H)-one] | 3 to 100 | < 10 | –
